Measured values as given in patent US20080069785A1, “PEST-CONTROL COMPOSITIONS, AND METHODS AND PRODUCTS UTILIZING SAME” (priority 2004, published 2008).
Values joined by “and” are separate entries in the source; they are usually repeats but may differ in a detail not shown here. Identical values can stand only once.

How the values were obtained:
[1] = test system: Eastern subterranean termite, Reticulitermes flavipes; assay: Termite direct application test (Example 20); type: in vivo; conditions: 1 uL onto the back or thorax
Experimental: In this test, in addition to water as a negative control, a positive control, in the form of the commercially available pesticide Raid® in also included. The method in this test simply involved pippetting 1 uL of the formulation onto the back or thorax of the Eastern subterranean termite, Reticulitermes flavipes, and recording the time to death. This test was performed on Mar. 13, 2007. The formulations used in the test were: (a) Raid®, a commercially available pesticide, (b) Undecanone, (c) BioUD™10, (d) BioUD™5, (e) Soy Methyl Ester (SME), and (f) water as a negative control.

[2] = test system: adult German cockroaches, Blattella germanica; assay: Direct application toxicity test, comparison of insecticides including BioUD 10 (Table 23); type: in vivo; conditions: 10 μL; adult female (F); individual cockroaches
Experimental: Ten μL of BioUD™10, pure Undecanone, or Raid® were separately applied to the backs (thorax and wings) of adult German cockroaches, Blattella germanica. Insects were separately placed into FLUON®-treated diet cups (Vol.=30 mL, lower diam.=3 cm, height=4 cm) to prevent escape of treated specimens.

For `CCCCCCCCCC(C)=O` [Undecanone, 2-Undecanone], the “Time-to-death (sec), mean” value [1] was 171.5 s, the “Time-to-death” value ([1]; individual termite) was 157 s and 389 s and 68 s and 174 s and 146 s and the Time-to-death [2] was 47 s and 46 s and 1200 s and 57 s.
